{"source": "paper doi:10.1101/2024.12.18.629081v1", "about": "(biorxiv, 2024)", "key": {"FGFR3": {"target": "FGFR3 (Homo sapiens, UniProt P22607)", "sequence (P22607 449-759)": "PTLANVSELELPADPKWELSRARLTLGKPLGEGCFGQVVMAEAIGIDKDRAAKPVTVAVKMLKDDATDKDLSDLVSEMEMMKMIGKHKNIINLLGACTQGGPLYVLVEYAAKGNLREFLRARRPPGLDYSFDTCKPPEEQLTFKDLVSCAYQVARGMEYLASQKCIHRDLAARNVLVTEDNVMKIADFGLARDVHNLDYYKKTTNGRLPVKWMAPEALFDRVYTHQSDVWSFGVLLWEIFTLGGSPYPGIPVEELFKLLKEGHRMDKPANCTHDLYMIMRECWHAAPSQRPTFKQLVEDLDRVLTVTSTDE", "test": "SPR", "assay_type": "binding"}, "GCK": {"target": "T1, GCK (Homo sapiens, UniProt P35557)", "T1 sequence (P35557 1-465)": "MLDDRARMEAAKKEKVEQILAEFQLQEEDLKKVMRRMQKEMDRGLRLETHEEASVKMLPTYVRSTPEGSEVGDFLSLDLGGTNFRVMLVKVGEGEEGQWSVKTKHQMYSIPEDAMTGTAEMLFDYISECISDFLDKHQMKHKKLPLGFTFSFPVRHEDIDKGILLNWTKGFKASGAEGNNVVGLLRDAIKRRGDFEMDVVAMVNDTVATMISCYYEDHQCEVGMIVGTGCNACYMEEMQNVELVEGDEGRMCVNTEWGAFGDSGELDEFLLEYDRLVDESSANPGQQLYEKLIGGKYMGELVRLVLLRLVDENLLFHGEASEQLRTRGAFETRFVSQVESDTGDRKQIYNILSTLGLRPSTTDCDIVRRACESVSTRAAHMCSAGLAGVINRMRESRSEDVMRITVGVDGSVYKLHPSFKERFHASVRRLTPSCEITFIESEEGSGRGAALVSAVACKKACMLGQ", "test": "G6PDH-coupled activation assay, A340", "assay_type": "biochemical"}}, "data": [{"smiles": "Nc1nc2c(s1)[C@H](c1ccc(F)cc1)CC(=O)N2", "note": "[F4]", "values": [{"measurement": "Kd", "setting": "FGFR3", "value": 599, "unit": "µM"}]}, {"smiles": "Nc1nc2c(s1)[C@H](c1ccccc1OCc1ccc(Cl)cc1)CC(=O)N2", "note": "[F42]", "values": [{"measurement": "Kd", "setting": "FGFR3", "value": 61.4, "unit": "µM"}]}, {"smiles": "CNc1ccc(Sc2nnc[nH]2)nc1C(=O)Nc1nccs1", "note": "[G0]", "values": [{"measurement": "EC50", "setting": "GCK", "value": "1.81 ± 0.28", "unit": "µM"}]}, {"smiles": "Cc1cccc(Nc2ccc(Sc3nnc[nH]3)nc2C(=O)Nc2nccs2)c1", "note": "[G11]", "values": [{"measurement": "EC50", "setting": "GCK", "value": 0.15, "unit": "µM"}]}]}
